Laboratory results published in publication PMC5814047, “Peptidic inhibitors of insulin-degrading enzyme with potential for dermatological applications discovered via phage display” (PLoS ONE, 2018).

Columns and labels:
[1] = test system: multiple matrix-metalloproteases (MMPs); assay: Matrix Metalloproteinase (MMP) Inhibitor Profiling Kit, Fluorometric RED; format: biochemical; design: % activity relative to DMSO-only controls, single runs / % activity relative to DMSO-only controls, Mean: concentration or dose not given beside the values
Description: (§1) IDE activity was quantified by monitoring the degradation of Mca-[…](Dnp) (FRET1, 5 μM), fluoresceinated and biotinylated amyloid ß-protein (FAßB; 500 nM) or recombinant human insulin (50 nM) in PBS supplemented with 0.05% BSA. FRET1 degradation was measured by changes in fluorescence (λex = 340 nm, λem = 420 nm); FAßB degradation was monitored by fluorescence polarization (λex = 488 nm, λem = 525 nm), as described; and insulin degradation was quantified by ELISA. In vitro activity assays incorporated recombinant human IDE (1 nM) purified from bacteria. For quantitation of insulin degradation in primary murine skin fibroblasts, cells (1 x 10^5/well) were plated in 96-well plates and maintained in DMEM supplemented with 10% fetal bovine serum (FBS), 2mM glutamine, penicillin and streptomycin. After addition of insulin (10 nM or 100 nM), samples of conditioned medium were removed daily and quickly frozen, then insulin levels were quantified in parallel by ELISA according to manufacturer’s recommendations (Crystal Chem, Downers Grove, IL, USA). Assessment of the activity of P12-3A against a variety of matrix-metalloproteases was conducted using the Matrix Metalloproteinase (MMP) Inhibitor Profiling Kit, Fluorometric RED (Enzo Life Sciences, Inc., Farmingdale, NY, USA) according to manufacturer’s recommendations using the broad-spectrum MMP inhibitor, NNGH, as a positive control.
Supplementary file pone.0193101.s004.tif: S4 Fig Selectivity of P12-3A for IDE vis-à-vis other proteases. Activity of P12-3A (100 μM) against (A) multiple matrix-metalloproteases (MMPs) and (B) multiple peptidases of different protease classes. […] Data are mean ± SD, n = 8–16 per group. P<0.05 by 2-tailed Student’s t-test. […] See Materials and Methods for details. NEP, neprilysin; mCatD, murine cathepsin D; hCatD, human cathepsin D. (TIF) Click here for additional data file.

MMP-7 = target: T1, MMP-7 (Homo sapiens, UniProt P09237); assay: MMP Inhibitor Profiling Kit, MMP-7; format: biochemical; settings: MMP-7
T1 construct: purchased Enzo Life Sciences, Inc
T1 sequence (P09237 95-267): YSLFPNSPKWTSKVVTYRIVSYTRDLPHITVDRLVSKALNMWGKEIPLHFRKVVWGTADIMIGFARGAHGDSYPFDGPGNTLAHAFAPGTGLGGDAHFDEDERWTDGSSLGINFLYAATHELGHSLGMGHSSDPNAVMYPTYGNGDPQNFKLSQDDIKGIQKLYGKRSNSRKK
Description: as §1, with “control. […]” for “control.”

IDE = target: T2, IDE (Homo sapiens, UniProt P14735); design: method as in PMID 24847884; settings: read-out: IC50 against insulin; cited from earlier work
T2 construct: made in house; host or cells: bacteria
T2 sequence (P14735 1-1019): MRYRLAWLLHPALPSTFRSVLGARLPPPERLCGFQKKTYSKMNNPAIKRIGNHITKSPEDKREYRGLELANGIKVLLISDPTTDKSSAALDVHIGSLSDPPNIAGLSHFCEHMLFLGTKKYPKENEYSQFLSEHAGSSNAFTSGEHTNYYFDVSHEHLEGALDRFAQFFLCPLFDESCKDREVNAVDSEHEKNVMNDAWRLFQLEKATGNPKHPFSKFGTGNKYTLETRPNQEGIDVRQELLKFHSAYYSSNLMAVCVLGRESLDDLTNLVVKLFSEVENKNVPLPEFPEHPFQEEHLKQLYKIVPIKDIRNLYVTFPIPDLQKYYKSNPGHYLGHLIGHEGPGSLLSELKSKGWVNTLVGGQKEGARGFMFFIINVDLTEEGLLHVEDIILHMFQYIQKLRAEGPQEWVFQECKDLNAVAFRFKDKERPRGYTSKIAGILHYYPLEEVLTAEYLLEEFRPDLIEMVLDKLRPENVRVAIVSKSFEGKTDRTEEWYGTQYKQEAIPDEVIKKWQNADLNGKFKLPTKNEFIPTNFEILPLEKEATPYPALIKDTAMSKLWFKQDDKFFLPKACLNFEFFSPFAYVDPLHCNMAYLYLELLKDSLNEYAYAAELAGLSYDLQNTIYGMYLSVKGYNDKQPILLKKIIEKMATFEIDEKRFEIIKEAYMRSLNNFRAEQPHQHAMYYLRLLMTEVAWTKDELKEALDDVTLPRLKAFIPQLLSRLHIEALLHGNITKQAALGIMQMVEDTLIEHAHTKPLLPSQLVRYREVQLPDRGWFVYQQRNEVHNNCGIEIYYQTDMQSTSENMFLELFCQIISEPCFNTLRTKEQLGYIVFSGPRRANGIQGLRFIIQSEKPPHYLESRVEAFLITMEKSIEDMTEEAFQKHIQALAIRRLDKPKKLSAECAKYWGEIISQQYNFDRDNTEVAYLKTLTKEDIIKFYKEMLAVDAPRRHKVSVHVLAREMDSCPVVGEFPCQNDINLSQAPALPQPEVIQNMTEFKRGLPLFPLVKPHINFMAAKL

With `COc1ccc(S(=O)(=O)N(CC(=O)NO)CC(C)C)cc1` [NNGH, reference compound] the “% activity relative to DMSO-only controls, Mean” value ([1]; MMP-1) was 1.0%, the “% activity relative to DMSO-only controls, Mean” value ([1]; MMP-2) was 0.122% and the “% activity relative to DMSO-only controls, Mean” value ([1]; MMP-3) was -1.2%. For the same compound, the “% activity relative to DMSO-only controls, Mean” value ([1]; MMP-8) was 5.1%, the “% activity relative to DMSO-only controls, Mean” value ([1]; MMP-9) was 4.0% and the “% activity relative to DMSO-only controls, Mean” value ([1]; MMP-12) was 1.9%. For the same compound, the “% activity relative to DMSO-only controls, Mean” value ([1]; MMP-13) was 6.5%, the “% activity relative to DMSO-only controls, Mean” value ([1]; MMP-14) was 24% and the “% activity relative to DMSO-only controls, Mean” value ([1]; MMP-19) was 38%. For the same compound, the “inhibition by positive control, MMPs” value ([1]; NNGH positive control, P< 0.01) was “significant inhibition” and the “% activity relative to DMSO-only controls, Mean” value (MMP-7) was 49.4%.
In the case of `NCCCC[C@@H]1NC(=O)/C=C/C(=O)N[C@H](C(N)=O)CCCCNC(=O)[C@@H](Cc2ccc(C(=O)c3ccccc3)cc2)NC(=O)[C@H](CC2CCCCC2)NC1=O` [6bK], the IC50 (IDE) is listed as roughly 100 nM.
